Results taken from patent publication US20110212185A1, “WATER THAT EXPRESSES PATHOGEN-RESISTANCE GENES (PR GENE CLUSTERS) TO ENCODE PLANT IMMUNOPROTEINS, A METHOD OF PREVENTING PLANT DISEASES USING THE WATER, AND A DEVICE FOR PRODUCING THE WATER” (priority 2008, published 2011).

What was measured:
carp = details: data sheet of Hokho lateral-row Oryzemate granular wettable powder; cited from earlier work
[1] = tested on: plant body or plant cells; details: supplied directly to plant body or plant cells; 'or more'; cited from earlier work
[2] = CLA chemiluminescence measurement of superoxide anion radicals in water; type: physicochemical; details: KO2 marker in FIG. 4; extinguished within several milliseconds
Method: The measurement of the superoxide anion radicals in water is performed in the following manner. […] Further, timings for collecting samples are set to immediately before the starting of reaction, 15 minutes after the start of reaction, and 30 minutes after the starting of reaction. At respective timings, 500 μl of aqueous solution in the reservoir is sampled using a micropipette and is added to 500 μl of 25 mM phosphoric acid potassium buffer solution (pH7.0) to which CLA is preliminarily added (1:1 mixture, total: 1 ml) and CLA luminescence is measured for 5 minutes after dropping the solution. The intensity of luminescence is indicated by relative luminescence unit (hereinafter referred to as rlu). […] Further, KO2 solution obtained by dissolving KO2 (potassium superoxide) in an organic solvent is added to CLA solution thus preparing a calibration curve of superoxide anion by chemiluminescence dependent on CLA. Generally, a method which dissolves KO2 in crown-ether-based organic solution and uses the solution for the determination of superoxide is used. However, to allow the reaction with CLA in aqueous solution in a non-hydrophobic environment, dimethylsulfoxide (DMSO) is used as organic solvent. Using this method, CLA luminescence by adding KO2 solution is induced whereby the calibration curve of superoxide anion radicals is prepared.

Row | Compound | concentration necessary to actually confirm the expression of the genes [1] | other results
1 | C=CCOC1=NS(=O)(=O)c2ccccc21 [probenazole] | – | LC50 value (48 hours) for carp (carp): 8 ppm
2 | OO [hydrogen peroxide] | 2 to 10 mM | –
3 | Potassium superoxide [KO2] | – | time for which emission of light is observed after dropping into water [2]: < 2 s
4 | O=C(O)c1ccccc1O [salicylic acid] | 0.1 to 0.5 mM | –
